± gives the standard deviation of the averaged measurements.
Assays:
[1] = test system: UT-SCC-28; experiment: relative IC50 (midpoint of the fitted curve; maximal inhibition may be below 50%); higher = less potent; conditions: culture condition: on top of Matrigel; treatment time: 3 days
How it was run: (§1)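 Using 384-well plates, 500 cells/well of HPV-negative HNSCC cell lines were grown on plastic, on 500 µg/mL Matrigel or Myogel coatings, or embedded in Matrigel or Myogel with rat collagen I. They were treated with compounds at five 10-fold concentrations for 3 days, and luminescence from CellTiter-Glo 2.0 was normalised to vehicle (0.1% DMSO) and cell-killing control wells. IC50, maximal inhibition and drug sensitivity score were derived from percent-inhibition dose–response curves in the FIMM pipeline.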

[2] = test system: UT-SCC-24B; experiment: as above; conditions: treatment time: 3 days
How it was run: as §1

[3] = test system: UT-SCC-42A; experiment: as above; conditions: culture condition: embedded in Matrigel; treatment time: 3 days
How it was run: as §1

[4] = test system: UT-SCC-14; experiment: as above; conditions: treatment time: 3 days
How it was run: as §1

[5] = test system: UT-SCC-81; experiment: maximal % inhibition of viability relative to DMSO; higher = stronger effect; conditions: treatment time: 3 days
Protocol: (§2)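 HNSCC cell lines (500 cells/well, 384-well) were cultured on plastic, on top of (2D) or embedded (3D) in Matrigel or human leiomyoma matrix Myogel (500 ug/mL; Myogel 3D mixed with rat collagen I). Cells were treated for 3 days with 5 ten-fold concentrations of each drug, and viability was read by CellTiter-Glo. Viability was normalised to DMSO and benzethonium chloride controls and fitted with the FIMM DSRT pipeline to give IC50 (nM), maximal % inhibition and DSS. Suffixes _1/_2/_3 are replicates. Only inhibition-mode (IC50) fits are kept.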

[6] = test system: UT-SCC-106A; experiment: as above; conditions: treatment time: 3 days
Protocol: as §2

[7] = test system: UT-SCC-40; experiment: as above; conditions: treatment time: 3 days
Protocol: as §2

[8] = test system: UT-SCC-28; experiment: as above; conditions: treatment time: 3 days
Protocol: as §2

[9] = test system: UT-SCC-42B; experiment: as above; conditions: treatment time: 3 days
Protocol: as §2

[10] = test system: UT-SCC-24B; experiment: as above; conditions: treatment time: 3 days
Protocol: as §2

[11] = test system: UT-SCC-73; experiment: as above; conditions: treatment time: 3 days
Protocol: as §2

[12] = test system: UT-SCC-42A; experiment: as above; conditions: treatment time: 3 days
Protocol: as §2

[13] = test system: UT-SCC-14; experiment: as above; conditions: treatment time: 3 days
Protocol: as §2

[14] = test system: UT-SCC-8; experiment: as above; conditions: treatment time: 3 days
Protocol: as §2

[15] = test system: UT-SCC-44; experiment: as above; conditions: treatment time: 3 days
Protocol: as §2

[16] = culture condition: embedded in Myogel + collagen I
[17] = culture condition: on top of Matrigel
[18] = culture condition: on top of Myogel
[19] = culture condition: plastic 2D (no matrix)
[20] = culture condition: embedded in Matrigel

## COc1ccc(-c2cc3c(C)nc(N)nc3n([C@H]3CC[C@H](OCCO)CC3)c2=O)cn1
[1]
  relative IC50: 118 nM
[2]; [16]
  relative IC50: 163 nM
[2]; [17]
  relative IC50: 363 nM
[2]; [18]
  relative IC50: 562 nM
[2]; [19]
  relative IC50: 337 nM
[3]
  relative IC50: 1810 nM
[4]; [18]
  relative IC50: 543 nM
[4]; [19]
  relative IC50: 741 nM
[5]; [20]
  maximal % inhibition of viability: 94 ± 4.5%
[5]; [16]
  maximal % inhibition of viability: 77.7 ± 13%
[5]; [17]
  maximal % inhibition of viability: 89.7 ± 4.7%
[5]; [18]
  maximal % inhibition of viability: 79.7 ± 8.8%
[5]; [19]
  maximal % inhibition of viability: 81.7 ± 7.7%
[6]; [20]
  maximal % inhibition of viability: 72.2 ± 2.7%
[6]; [16]
  maximal % inhibition of viability: 58.5 ± 8.7%
[6]; [17]
  maximal % inhibition of viability: 75.6 ± 2.8%
[6]; [18]
  maximal % inhibition of viability: 61.7 ± 13%
[6]; [19]
  maximal % inhibition of viability: 76.8 ± 4.8%
[7]; [20]
  maximal % inhibition of viability: 88.6 ± 7.3%
[7]; [16]
  maximal % inhibition of viability: 74 ± 12%
[7]; [17]
  maximal % inhibition of viability: 85.1 ± 7.9%
[7]; [18]
  maximal % inhibition of viability: 64.1 ± 17%
[7]; [19]
  maximal % inhibition of viability: 68 ± 15%
[8]; [20]
  maximal % inhibition of viability: 63.3 ± 13%
[8]; [16]
  maximal % inhibition of viability: 65.3 ± 16%
[8]; [17]
  maximal % inhibition of viability: 66 ± 3.7%
[8]; [19]
  maximal % inhibition of viability: 56.8 ± 3.1%
[9]; [20]
  maximal % inhibition of viability: 63.8 ± 11%
[9]; [17]
  maximal % inhibition of viability: 31.5 ± 7%
[9]; [18]
  maximal % inhibition of viability: 18.5 ± 13%
[9]; [19]
  maximal % inhibition of viability: 21.6 ± 12%
[10]; [20]
  maximal % inhibition of viability: 99.6 ± 0.2%
[10]; [16]
  maximal % inhibition of viability: 98.7 ± 0.36%
[10]; [17]
  maximal % inhibition of viability: 99.57 ± 0.67%
[10]; [18]
  maximal % inhibition of viability: 99 ± 1%
[10]; [19]
  maximal % inhibition of viability: 99.73 ± 0.46%
[11]; [20]
  maximal % inhibition of viability: 87.9 ± 5%
[11]; [16]
  maximal % inhibition of viability: 79.9 ± 16%
[11]; [17]
  maximal % inhibition of viability: 82.7 ± 12%
[11]; [18]
  maximal % inhibition of viability: 80 ± 14%
[11]; [19]
  maximal % inhibition of viability: 85.4 ± 6.6%
[12]; [20]
  maximal % inhibition of viability: 71.4 ± 9.7%
[12]; [16]
  maximal % inhibition of viability: 62.5 ± 12%
[12]; [17]
  maximal % inhibition of viability: 72.1 ± 7.3%
[12]; [18]
  maximal % inhibition of viability: 63.3 ± 12%
[12]; [19]
  maximal % inhibition of viability: 72.5 ± 6.5%
[13]; [20]
  maximal % inhibition of viability: 80.5 ± 3.8%
[13]; [16]
  maximal % inhibition of viability: 67.7 ± 5.3%
[13]; [17]
  maximal % inhibition of viability: 77.3 ± 1.4%
[13]; [18]
  maximal % inhibition of viability: 67.5 ± 3.8%
[13]; [19]
  maximal % inhibition of viability: 72.7 ± 3.6%
[14]; [20]
  maximal % inhibition of viability: 91.8 ± 9%
[14]; [16]
  maximal % inhibition of viability: 71.3 ± 21%
[14]; [17]
  maximal % inhibition of viability: 82.1 ± 19%
[14]; [18]
  maximal % inhibition of viability: 78.7 ± 14%
[14]; [19]
  maximal % inhibition of viability: 84 ± 14%
[15]; [20]
  maximal % inhibition of viability: 45.9 ± 6.3%
[15]; [16]
  maximal % inhibition of viability: 40.2 ± 19%
[15]; [17]
  maximal % inhibition of viability: 44.7 ± 10%
[15]; [18]
  maximal % inhibition of viability: 43 ± 11%
[15]; [19]
  maximal % inhibition of viability: 43.2 ± 15%

Reference: the supplement of paper PMC7017272
